Assay [1] concerns Nrf2. The experiment in a line: Nrf2 Western blot in bEnd.3 cells. It is filed as cell-based, mouse. The settings on record: lipoic acid 1 mM alone; FIG. 9. In general terms: Immunoblotting shows a protein as a band on a membrane.
Procedure: Culture of bEnd.3 Cells for Nrf2 Study—Mouse brain endothelial (b.End3) cells are grown and maintained in DMEM supplemented with 10% fetal bovine serum and 1% penicillin streptomycin. Once cells reach 90% confluence, cells are split in a 1-to-5 ratio.
Treatment of bEnd.3 Cells for Nrf2 Study—b.End3 cells are seeded on 10-cm petri dishes. On day 4, half of the old media is discarded and replaced with fresh media.
Nrf2 Western blotting—Cell extraction is performed using Cell Lysis Buffer and the provided protocol (ThermoFisher #FNN0011). Proteins are quantified using Bradford assay (Thermofisher #1863028). Same amounts of proteins of each lysate (20 μg) are loaded on an SDS-PAGE gel under reducing conditions (unless stated otherwise). Membrane transfer is done overnight (about 18 hours) in cold room and blocked with 5% dry milk/TBST the next day. Subsequently, the membrane is incubated with primary antibodies overnight (about 18 hours) and with secondary antibodies for an hour in blocking solution. Signals are developed with ECL (ThermoFisher #A43840) and captured with ChemiDoc™ Imaging System.
Assay [2] concerns AHI lymphocytes. In words: AP39 challenge of AHI lymphocytes. It is filed as cell-based, human. Conditions: AHI cells; 5 μM AP39; p<0.05; FIG. 10.
Source text: (§1) Age-matched and sex-matched DS-donor and apparently healthy individual (AHI) lymphocytes (Coriell Institute, Camden, NJ) are used as a human model of DS.
Assay [3] has as its system DS lymphocytes. The experiment in a line: AP39 challenge of DS lymphocytes. The assay is classed as cell-based, human. Conditions: DS cells; 5 μM AP39; p<0.05; FIG. 10.
Source text: as §1

For the compound `O=C(O)CCCC[C@@H]1CCSS1` (racemic) [lipoic acid], in assay [1], the “Nrf2 signal (Western blot)” value is reported as “some small increases in signal”.
As to `O=C(CCCCCCCCC[P+](c1ccccc1)(c1ccccc1)c1ccccc1)Oc1ccc(-c2cc(=S)ss2)cc1.[Br-]` [AP39], the cell proliferation result in assay [2] and in assay [3] was “reduced” in each case. Also, the “viability versus untreated control” value in assay [3] is given as “significant reduction in viability”.

For the origin of these results see patent US12721863B2, “Treatment for down syndrome-related accelerated aging” (The Texas A&M University System, priority 2021, dated 2026).
